Source: patent US20050053575A1, “Antigenic product displaying multiple copies of an epitope of a deposit-forming polypeptide involved in plaque-forming diseases and methods of using same” (Ramot At Tel Aviv University Ltd, priority 2001, published 2005)
No end group written: not given here.

Legend:
[1] = tested on: amyloid anti-aggregating antibody; conditions: Frenkel et al. 1998; ELISA; Nd = IC50 which cannot be detected by ELISA; read-out: Competitive inhibition of anti-aggregating antibody (IC50); cited from earlier work
[2] = tested on: serum antibody raised against f88-EFRH; assay: Competitive inhibition by peptides within βAP of serum antibody raised against f88-EFRH (ELISA); format: binding; conditions: Nd = IC50 which cannot be detected by ELISA, read-out: Competitive inhibition of MICE SERUM antibody (IC50)
Text: The antibodies resulting from EFRH (SEQ ID NO:5) phage immunization are similar regarding their immunological properties to antibodies raised by direct injection with whole β-amyloid (Table 1). […] The high immunogenicity of filamentous phages enables the raising of antibodies against self-antigens.

[3] = tested on: β-amyloid peptide 1-16 (EFRH-epitope); assay: Immunization of Balb/C mice; serum Ig titers by ELISA against the EFRH-epitope (β-amyloid peptide 1-16); format: in vivo; conditions: i.p., filamentous phage as adjuvant, five injections; FIG. 10
Procedure: Four mice (named A, B, C, D) were immunized at two week intervals with 100 μg of MAP-[…] (SEQ ID NO:1)+adjuvant (either Complete Freund's or Incomplete Freund's adjuvant) by intraperitoneal injection, and two mice were immunized with H2O+adjuvant as a negative control. All mice were 8 week old female mice.
In experiments of antibody binding to β-amyloid peptide 1-16, 100 ng/well biotinylated β-amyloid peptides 1-16 were bound to streptavidin-coated microtiter plates for ½ h at room temperature. ELISA plates were previously coated with streptavidin for 16 h at 4° C. after washing, bound antibodies to β-peptide were detected by incubation with horseradish peroxidase-conjugated antibodies, as previously described in Frenkel et al. (1999). The Ig type was measured with rabit anti-mouse IgG and anti-mouse IgM labeled with horseradish peroxidase.
Two female mice 8 weeks old (named A and B) were immunized at approximately two week intervals with 200 μg of MAP-(EFRH)2+filamentous phage as adjuvant by intraperitoneal injection.
Two female mice 8 weeks old (named G and H) were immunized at approximately two week intervals with the streptavidin and biotinylated MAP-[…] (SEQ ID NO:1) complex (100 μg of MAP-[…] (SEQ ID NO:1) per mouse) by intraperitoneal injection without adjuvant.

Substance	IC50 [1] [µM]	IC50 [2] [µM]	Immune response (serum IgG titers) [3]
DAEFRH [peptide, residues 1-6 of AβP]	0.8	3	
DAEFRHD [peptide, residues 1-7 of AβP]	0.9	5	
DAEFRHDSG	1	5	
FRH: peptide, residues 4-6 of AβP (Amyloid-beta protein 40; UniProt P05067 675-677, looked up, fragment)	3000	~1000	
MAP-(EFRH)2: octavalent MAP carrying TyrGluPheArgHisTyrGluPheArgHis (SEQ ID NO:4), two EFRH epitopes per peptide (YEFRHYEFRH; also: octavalent lysine-core MAP)			strong immune response
βAP(1-40): full length β-amyloid peptide (1-40)	0.8	3	
